The values below come from patent US20060062758A1, “Tight junction modulator peptide PN159 for enhanced mucosal delivery of therapeutic compounds” (Nastech Pharmaceutical Comapny Inc., priority 2004, published 2006).

In data set [1] the test system is EpiAirway™ Cell Membrane (mucosal epithelial cell layer). Briefly: Permeation kinetics across the in vitro epithelial tissue model. How it is done:
(§1) The EpiAirway™ system was developed by MatTek Corp (Ashland, Mass.) as a model of the pseudostratified epithelium lining the respiratory tract. The epithelial cells are grown on porous membrane-bottomed cell culture inserts at an air-liquid interface, which results in differentiation of the cells to a highly polarized morphology. The apical surface is ciliated with a microvillous ultrastructure and the epithelium produces mucus (the presence of mucin has been confirmed by immunoblotting). The inserts have a diameter of 0.875 cm, providing a surface area of 0.6 cm^2. The cells are plated onto the inserts at the factory approximately three weeks before shipping. One “kit” consists of 24 units.
(§2) A. A “kit” of 24 EpiAirway™ units can routinely be employed for evaluating five different formulations, each of which is applied to quadruplicate wells. Each well is employed for determination of permeation kinetics (4 time points), transepithelial electrical resistance (TER). An additional set of wells is employed as controls, which are sham treated during determination of permeation kinetics, but are otherwise handled identically to the test sample-containing units for determinations of transepithelial resistance and viability.
(§3) B. In all experiments, the mucosal delivery formulation to be studied is applied to the apical surface of each unit in a volume of 100 μL, which is sufficient to cover the entire apical surface. An appropriate volume of the test formulation at the concentration applied to the apical surface (no more than 100 μL is generally needed) is set aside for subsequent determination of concentration of the active material by ELISA or other designated assay.
(§4) D. In order to minimize potential sources of error and avoid any formation of concentration gradients, the units are transferred from one 0.9 mL-containing well to another at each time point in the study. These transfers are made at the following time points, based on a zero time at which the 100 μL volume of test material was applied to the apical surface: 15 minutes, 30 minutes, 60 minutes, and 120 minutes.
(§5) F. At the completion of each time point, the medium is removed from the well from which each unit was transferred, and aliquotted into two tubes (one tube receives 700 μL and the other 200 μL) for determination of the concentration of permeated test material and, in the event that the test material is cytotoxic, for release of the cytosolic enzyme, lactate dehydrogenase, from the epithelium. These samples are kept in the refrigerator if the assays are to be conducted within 24 hours, or the samples are subaliquotted and kept frozen at −80° C. until thawed once for assays. Repeated freeze-thaw cycles are to be avoided.
(§6) EIA kit (p/n S-1178(EIAH6101) was purchased from Peninsula Laboratories Inc. (Division of BACHEM, San Carlos, Calif., 800-922-1516). 17×120 mm polypropylene conical tubes (p/n 352097, Falcon, Franklin Lakes, N.J.) were used for all sample preparations. Eight standards were used for PTH quantitation. The rest of the assay procedure was the same as the kit inserts.
(§7) The instant study was designed to evaluate the effect of PN159 itself or in combination with additional permeation enhancers on PTH permeation. The PN159 concentrations evaluated are 25, 50, and 100 μM. The additional permeation enhancers are 45 mg/ml M-β-CD, 1 mg/ml DDPC, and 1 mg/ml EDTA. Sorbitol was used as a tonicifier (146-190 mM) to adjust the osmolarity of formulations to 220 mOsm/kg. The formulation pH was fixed at 4.5. PTH was chosen as a model peptide in this example. 2 mg/ml PTH was combined with PN159 with or without additional permeation enhancers. The combination was tested using an in vitro epithelial tissue model to monitor PTH permeation, transepithelial electrical resistance (TER), and the cytotoxicity of the formulation by LDH assay.
(§8) The effect of PN159 on permeation of MC-4RA was evaluated in this study.

Assay in data set [2]: as above
As to conditions: human, pH 5, Papp; for Papp at 120 min, 40 mg/mL: galantamine 40 mg/mL pH 5.0, calcitonin 1 mg/mL pH 3.5, PTH1-34 1 mg/mL pH 4.5. How it is done:
as §1, §2, §3, §4, §5, §6, §7, §8

For data set [3], the system named is EpiAirway™ Cell Membrane (mucosal epithelial cell layer). Description: LDH assay (cytotoxicity), in vitro epithelial tissue model. Type of data set: cell-based. To be noted: Example 2, PTH study; PN159 25-100 μM. The method, then:
Repeated freeze-thaw cycles are to be avoided.
The amount of cell death was assayed by measuring the loss of lactate dehydrogenase (LDH) from the cells using a CytoTox 96 Cytoxicity Assay Kit (Promega Corp., Madison, Wis.). Fifty microliters of sample was loaded into a 96-well assay plates. Fresh, cell-free culture medium was used as a blank. 50 μl of substrate solution was added to each well and the plates incubated for 30 minutes at room temperature in the dark. Following incubation, 50 μl of stop solution was added to each well and the plates read on an optical density plate reader at 490 nm.
(§9) The formulation pH was fixed at 4.5.

The test system is the same in data set [4]. Briefly: Transepithelial electrical resistance (TER), EpiAirway in vitro epithelial tissue model. Type of data set: cell-based. To be noted: Example 2, PTH formulation study, applied to apical side.
Source text: One “kit” consists of 24 units.
A. Respiratory airway epithelial cells form tight junctions in vivo as well as in vitro, and thereby restrict the flow of solutes across the tissue. These junctions confer a transepithelial resistance of several hundred ohms×cm^2 in excised airway tissues. In the MatTek EpiAirway™ units, the transepithelial electrical resistance (TER) is reported by the manufacturer to be routinely around 1000 ohms×cm^2. […] The porous membrane-bottomed units without cells, conversely, provide only minimal transmembrane resistance (approximately 5-20 ohms×cm^2).
B. Accurate determinations of TER require that the electrodes of the ohmmeter be positioned over a significant surface area above and below the membrane, and that the distance of the electrodes from the membrane be reproducibly controlled. The method for TER determination recommended by MatTek and employed for all experiments herein employs an “EVOM”™ epithelial voltohmmeter and an “ENDOHM”™ tissue resistance measurement chamber from World Precision Instruments, Inc., Sarasota, Fla.
D. Determinations of TER are made with 1.5 mL of PBS in the chamber and 350 μL of PBS in the membrane-bottomed unit being measured. The top electrode is adjusted to a position just above the membrane of a unit containing no cells (but containing 350 μL of PBS) and then fixed to ensure reproducible positioning. The resistance of a cell-free unit is typically 5-20 ohms×cm^2 (“background resistance”).
G. The unit is gently blotted free of excess PBS on its exterior surface only before being placed into the chamber (containing a fresh 1.5 mL aliquot of PBS). An aliquot of 350 μL PBS is added to the unit before the top electrode is placed on the chamber and the TER is read on the EVOM meter.
I. The units are read in the following sequence: all sham-treated controls, followed by all formulation-treated samples, followed by a second TER reading of each of the sham-treated controls. All TER values are reported as a function of the surface area of the tissue.
TER was calculated as: TER=(R1−Rb)×A Where R1 is resistance of the insert with a membrane, Rb is the resistance of the blank insert, and A is the area of the membrane (0.6 cm^2). The effect of pharmaceutical formulations comprising intranasal delivery-enhancing agents, for example, permeabilizing peptides as measured by TER across the EpiAirway™ Cell Membrane (mucosal epithelial cell layer). Permeabilizing peptides are applied to the EpiAirway™ Cell Membrane at a concentration of 1.0 mM. A decrease in TER value relative to the control value (control=approximately 1000 ohms-cm^2; normalized to 100.) indicates a decrease in cell membrane resistance and an increase in mucosal epithelial cell permeability.
as §9

`COc1ccc2c3c1O[C@H]1C[C@@H](O)C=C[C@@]31CCN(C)C2` [Galantamine, galantamine, reference compound]: the Papp in data set [1] ([PN159] 0 μM, galantamine 40 mg/mL pH 5.0, calcitonin 1 mg/mL pH 3.5, PTH1-34 1 mg/mL pH 4.5, PYY3-36 1 mg/mL, pH was 5.0) was found to be 2.1 ×10⁻⁶ cm/s. For the same compound, in data set [1] (drug in the presence of PN159 vs drug alone), the “increase in Papp” value is recorded as 2.5-3.5 fold. Also, the Papp at 120 min, 40 mg/mL in data set [2] ([PN159] 0 μM, PYY3-36 1 mg/mL, pH was 5.0) is about 2.1 ×10⁻⁶ cm/s; in data set [2] ([PN159] 25 μM, PYY3-36 1 mg/mL pH 7.0), 5.1 ×10⁻⁶ cm/s; in data set [2] ([PN159] 50 μM) it was 6.2 ×10⁻⁶ cm/s; in data set [2] ([PN159] 100 μM, PYY3-36 1 mg/mL pH 7.0) it was 7.2 ×10⁻⁶ cm/s. The values for the Papp at 120 min, 40 mg/ml in data set [2] (in the presence of 25 nM PN159 (as printed in text)), in data set [2] (in the presence of 50 nM PN159 (as printed in text)) and in data set [2] (in the presence of 100 nM PN159 (as printed in text)) were 5.1 ×10⁻⁶ cm/s, 6.2 ×10⁻⁶ cm/s and 7.2 ×10⁻⁶ cm/s, respectively.

In the case of Triton X [reference compound], the “cytotoxicity (LDH)” value in data set [3] is on record as “significant cytotoxicity”. Besides, the “TER reduction (in words)” value in data set [4] is “significant TER reduction”.
